In patent US20150164910A1, “ANTIVIRAL COMPOUNDS AND METHODS OF USE” (The Regents of the University of Califonia, priority 2012, published 2015):

Experiments:
[1] = tested on: CVB3-H3; assay: Plaque reduction assay, CVB3-H3 in HeLa-RW cells; type: cell-based, coxsackievirus B3; details: compound added 30 min before infection, CVB3-H3 MOI 1, HeLa-RW, 6 hours; log10(titer with DMSO only/titer with inhibitor)
[2] = tested on: eGFP-expressing recombinant CVB3; type: cell-based, coxsackievirus B3; details: for % of eGFP + cells, 0 Hr: compound added 0 hr post infection at its peak activity concentration, DMSO 26.0; for % of eGFP + cells, 0 Hr / % of eGFP + cells, 1 Hr / % of eGFP + cells, 2 Hr: read 6 hr post infection; for % of eGFP + cells, 1 Hr: compound added 1 hr post infection at its peak activity concentration, DMSO 23.7; for % of eGFP + cells, 2 Hr: compound added 2 hr post infection at its peak activity concentration, DMSO 24.8; for Inhibition of infected cells: eGFP-CVB3 m.o.i=1, compound added at time of infection, 6 hr post infection, 1-(% eGFP+ cells with compound/% with DMSO only)
[3] = tested on: coxsackievirus B3 (CVB3); assay: Cell viability assay, prevention of cell death caused by CVB3 infection; type: cell-based; details: for Selectivity index: 50% Cytotoxic concentration/50% activity concentration; for IC50 / EC (peak activity): Enterovirus B; for IC50: read-out: 50% activity concentration (IC50); for EC (peak activity): HeLa-RW cells and CVB3 at low multiplicity of infection, read-out: Peak Activity Conc.
Protocol: Procedure: Enteroviruses rapidly cause cell death, and a cell viability assay was used to examine the cytotoxicity of each compound and to identify the concentration needed to prevent cell death caused by coxsackievirus B3 (CVB3) infection.
Compounds were diluted two-fold and added to wells of 384 well plate. HeLa-RW cells were then added (cytotoxicity testing), or cells and CVB3 were added to provide a low multiplicity of infection to determine concentration of peak activity or 50% maximal concentration. Selectivity index is defined as the 50% Cytotoxic concentration/50% activity concentration

With `CC(C)n1ncc2c(C(=O)Nc3ccc4c(c3)OCO4)cc(-c3ccccc3)nc21` [Compound 21, N-(1,3-Benzodioxol-5-yl)-1-isopropyl-6-phenyl-1H-pyrazolo [3,4-b]pyridine-4-carboxamide] the “Log10 reduction of virus titer” value [1] was 4.5, the “% of eGFP + cells, 0 Hr” value [2] was 0.0% and the “% of eGFP + cells, 1 Hr” value [2] was 0.0%. The “% of eGFP + cells, 2 Hr” value [2] was 0.0%, the “Inhibition of infected cells” value [2] was 100% and the Selectivity index [3] was 21. For the same compound, the IC50 [3] was 1190 nM and the EC (peak activity) [3] was 3.13 µM.

For `Cc1ccc(-c2cc(C(=O)NN)c3ccccc3n2)s1` [Compound 25, 2-(5-Methyl-2-thienyl)-4-quinoline-carbohydrazide], the “Log10 reduction of virus titer” value [1] was 3.7, the “% of eGFP + cells, 0 Hr” value [2] was 0.1% and the “% of eGFP + cells, 1 Hr” value [2] was 0.1%. The “% of eGFP + cells, 2 Hr” value [2] was 0.0%, the “Inhibition of infected cells” value [2] was 100% and the Selectivity index [3] was 32. For the same compound, the IC50 [3] was 780 nM and the EC (peak activity) [3] was 3.13 µM.

With `NC(=O)C1CCN(CC(=O)N2N=C3/C(=C/c4cccs4)CCCC3C2c2cccs2)CC1` (stereo not shown) [Compound 63, 1-{2-Oxo-2-[(7E)-3-(2-thienyl)-7-(2-thienylmethylene)-3,3a,4,5,6,7-hexahydro-2H-indazol-2-yl]ethyl}-4-piperidine-carboxamide] the “Log10 reduction of virus titer” value [1] was 4.2 and the “Inhibition of infected cells” value [2] was 100%.

In the case of `COc1ccc(NC(=O)c2cc(-c3cccs3)nc3c2cnn3C(C)C)cc1` [Compound 7, 1-Isopropyl-N-(4-methoxyphenyl)-6-(2-thienyl)-1H-pyrazolo [3,4-b]pyridine-4-carboxamide], the “Log10 reduction of virus titer” value [1] is reported as 4.3 and the “Inhibition of infected cells” value [2] is reported as 99.5%.

In the case of `COc1ccc(-c2csc3ncn(CC(=O)c4ccc5c(c4)OCO5)c(=O)c23)cc1OC` [Compound 54, 3-[2-(1,3-Benzodioxol-5-yl)-2-oxoethyl]-5-(3,4-dimethoxyphenyl) thieno[2,3-d]pyrimidin-4 (3H)-one], the “Log10 reduction of virus titer” value [1] is reported as 3.2 and the “Inhibition of infected cells” value [2] is reported as 87.6%.

With `CC/C(C)=N\NC(=O)c1cc(-c2cccs2)nc2ccccc12` [Compound 24, N′-[(2Z)-2-Butanylidene]-2-(2-thienyl)-4-quinoline-carbohydrazide] the “Log10 reduction of virus titer” value [1] was 4.0 and the “Inhibition of infected cells” value [2] was 100%.

With `CC(C)n1ncc2c(C(=O)Nc3ccc(F)cc3Cl)cc(-c3cccs3)nc21` [Compound 6, N-(2-Chloro-4-fluorophenyl)-1-isopropyl-6-(2-thienyl)-1H-pyrazolo[3,4-b] pyridine-4-carboxamide] the “Log10 reduction of virus titer” value [1] was 4.3 and the “Inhibition of infected cells” value [2] was 99.5%.

`OC(c1ccccc1)c1nc2ccccc2n1-c1ccccc1` (stereo not shown) [Compound 41, Phenyl(1-phenyl-1H-benzimidazol-2-yl)methanol] was tested, and the “Log10 reduction of virus titer” value [1] was 4.1 and the “Inhibition of infected cells” value [2] was 100%.

In the case of `Nc1nnc(SCc2nc3cc(Cl)ccc3n2Cc2ccccc2)s1` [Compound 43, 5-{[(1-Benzyl-5-chloro-1H-benzimidazol-2-yl)methyl]sulfanyl}-1,3,4-thiadiazol-2-amine], the “Log10 reduction of virus titer” value [1] is reported as 0.3 and the “Inhibition of infected cells” value [2] is reported as 91.3%.

In the case of `Cc1ccc2nc(N3CCN(Cc4nnnn4Cc4ccccc4)CC3)c(C#N)cc2c1` [Compound 36, 2-{4-[(1-Benzyl-1H-tetrazol-5-yl)methyl]-1-piperazinyl}-6-methyl-3-quinoline-carbonitnle], the “Log10 reduction of virus titer” value [1] is reported as 1.0 and the “Inhibition of infected cells” value [2] is reported as 79.7%.

In the case of `CC(C)c1cc(C(=O)Nc2ccccc2N2CCN(C)CC2)c2cnn(C(C)C)c2n1` [Compound 15, 1,6-Diisopropyl-N-[2-(4-methyl-1-piperazinyl)phenyl)-1H-pyrazolo[3,4-b]pyridine-4-carboxamide], the “Log10 reduction of virus titer” value [1] is reported as 2.4 and the “Inhibition of infected cells” value [2] is reported as 100%.

In the case of `Cc1ccc(NC(=O)c2cc(-c3cccs3)nc3c2cnn3C(C)C)cc1S(N)(=O)=O` [Compound 9, 1-Isopropyl-N-(4-methyl-3-sulfamoylphenyl)-6-(2-thienyl)-1H-pyrazolo[3,4-b] pyridine-4-carboxamide], the “Log10 reduction of virus titer” value [1] is reported as 4.5 and the “Inhibition of infected cells” value [2] is reported as 100%.

With `CCn1ncc2c(C(=O)Nc3ccc(C)c(S(N)(=O)=O)c3)cc(-c3cccs3)nc21` [Compound 19, 1-Ethyl-N-(4-methyl-3-sulfamoylphenyl)-6-(2-thienyl)-1H-pyrazolo[3,4-b] pyridine-4-carboxamide] the “Log10 reduction of virus titer” value [1] was 4.3 and the “Inhibition of infected cells” value [2] was 100%.

With `Cc1cc(F)ccc1NC(=O)c1cc(-c2cccs2)nc2c1cnn2C(C)C` [Compound 4, N-(4-Fluoro-2-methylphenyl)-1-isopropyl-6-(2-thienyl)-1H-pyrazolo[3,4-b] pyridine-4-carboxamide] the “Log10 reduction of virus titer” value [1] was 4.5 and the “Inhibition of infected cells” value [2] was 100%.

With “1-Isopropyl- N,6-diphenyl-1H- pyrazolo[3,4-b] pyridine- 4-carboxamide [Compound 16]” the “Log10 reduction of virus titer” value [1] was 4.5, the “% of eGFP + cells, 0 Hr” value [2] was 0.0% and the “% of eGFP + cells, 1 Hr” value [2] was 0.1%. For the same compound, the “% of eGFP + cells, 2 Hr” value [2] was 0.0% and the “Inhibition of infected cells” value [2] was 100%.

`Cc1ccc(F)cc1NC(=O)c1cc(-c2cccs2)nc2c1cnn2C(C)C` [Compound 2, N-(5-Fluoro-2-methylphenyl)-1-isopropyl-6-(2-thienyl)-1H-pyrazolo[3,4-b] pyridine-4-carboxamide] was tested, and the “Log10 reduction of virus titer” value [1] was 4.4 and the “Inhibition of infected cells” value [2] was 99.6%.

For `Cc1ccc(NC(=O)c2cc(-c3cccs3)nc3c2cnn3C(C)C)c(F)c1` [Compound 5, N-(2-Fluoro-4-methylphenyl)-1-isopropyl-6-(2-thienyl)-1H-pyrazolo[3,4-b] pyridine-4-carboxamide], the “Log10 reduction of virus titer” value [1] was 4.4 and the “Inhibition of infected cells” value [2] was 99.3%.

In the case of `COc1cccc(NC(=O)c2cc(-c3cccs3)nc3c2cnn3C(C)C)c1` [Compound 8, 1-Isopropyl-N-(3-methoxyphenyl)-6-(2-thienyl)-1H-pyrazolo [3,4-b]pyridine-4-carboxamide], the “Log10 reduction of virus titer” value [1] is reported as 4.4 and the “Inhibition of infected cells” value [2] is reported as 99.2%.

In the case of `Cl.Cl.OCCN1CCN(CC/C=C2/c3ccccc3Sc3ccc(C(F)(F)F)cc32)CC1` [Compound 70, 2-(4-{(3Z)-3-[2-(Trifluoromethyl)-9H-thioxanthen-9-ylidene]propyl}-1-piperazinyl)ethanol dihydrochloride, reference compound], the “Log10 reduction of virus titer” value [1] is reported as 3.9 and the “Inhibition of infected cells” value [2] is reported as 99.6%.

With `CCCCNCC(=O)Nc1ccccc1N1CCCCC1` [Compound 65, N^2-Butyl-N-[2-(1-piperidinyl)phenyl] glycinamide] the “Log10 reduction of virus titer” value [1] was −0.4 and the “Inhibition of infected cells” value [2] was 36.2%.

With `CC(C)n1ncc2c(C(=O)Nc3cccc(S(C)(=O)=O)c3)cc(-c3cccs3)nc21` [Compound 10, 1-lsopropyl-N-[3-(methylsulfonyl)phenyl]-6-(2-thienyl)-1H-pyrazolo [3,4-b]pyridine-4-carboxamide] the “Log10 reduction of virus titer” value [1] was 4.4 and the “Inhibition of infected cells” value [2] was 100%.

In the case of `NNC(=O)c1cc(-c2ccccc2)nc2ccccc12` [Compound 26, 2-Phenyl-4-quinoline-carbohydrazide], the “Log10 reduction of virus titer” value [1] is reported as 2.5 and the “Inhibition of infected cells” value [2] is reported as 98.7%.

`CC1Oc2ccc(NC(=O)c3cc(-c4cccs4)nc4ccccc34)cc2NC1=O` (stereo not shown) [Compound 30, N-(2-Methyl-3-oxo-3,4-dihydro-2H-1,4-benzoxazin-6-yl)-2-(2-thienyl)-4-quinolinecarboxamide] was tested, and the “Log10 reduction of virus titer” value [1] was 4.1 and the “Inhibition of infected cells” value [2] was 100%.

In the case of `CCN(CC)CCNC1CCCc2c1[nH]c1ccc(C)cc21.Cl` (stereo not shown) [Compound 66, N,N-Diethyl-2-[(6-methyl-2,3,4,9-tetrahydro-1H-carbazol-1-yl)amino] ethanaminium chloride], the “Log10 reduction of virus titer” value [1] is reported as 4.4 and the “Inhibition of infected cells” value [2] is reported as 99.6%.

In the case of `C#CCSc1nc2ccccc2c(=O)n1Cc1ccccc1` [Compound 48, 3-Benzyl-2-(2-propyn-1-ylsulfanyl)-4(3H)-quinazolinone], the “Log10 reduction of virus titer” value [1] is reported as 4.5 and the “Inhibition of infected cells” value [2] is reported as 100%.

For `Cc1nc2ccccc2c2c(NC(=O)c3cnccn3)c3ccccc3n12` [Compound 50, N-(6-Methylindolo [1,2-c]quinazolin-12-yl)-2-pyrazinecarboxamide], the “Log10 reduction of virus titer” value [1] was 2.5 and the “Inhibition of infected cells” value [2] was 69.9%.

In the case of `COc1ccc(-c2nc3cnccn3c2NCc2ccc(C)cc2)cc1CO` [Compound 59, (2-Methoxy-5-{3-[(4-methylbenzyl)amino]imidazo[1,2-a]pyrazin-2-yl}phenyl)methanol], the “Log10 reduction of virus titer” value [1] is reported as 1.3 and the “Inhibition of infected cells” value [2] is reported as 75.2%.

For `O=C(c1ccc2c(c1)OCCO2)C1CCN(C(=O)c2ccc(-n3cccn3)cc2)CC1` [Compound 46, 2,3-Dihydro-1,4-benzodioxin-6-yl {1-[4-(1H-pyrazol-1-yl)benzoyl]-4-piperidinyl}methanone], the “Log10 reduction of virus titer” value [1] was 1.3 and the “Inhibition of infected cells” value [2] was 82.6%.

For `Cc1ccc2cc(CN(Cc3ccc(F)cc3)C(=O)c3cccs3)c(=O)[nH]c2c1C` [Compound 37, N-[(7,8-Dimethyl-2-oxo-1,2-dihydro-3-quinolinyl)methyl]-N-(4-fluorobenzyl)-2-thiophene-carboxamide], the “Log10 reduction of virus titer” value [1] was 4.2 and the “Inhibition of infected cells” value [2] was 99.7%.
